Columns and labels:
[1] = system: HCT116 colorectal carcinoma cell line; assay: MTS antiproliferative assay, HCT116; assay type: cell-based, human; settings: 48 h incubation, MTS; read-out: Relative IC50, HCT116
Protocol: (§3) Normal dermal human fibroblasts, colorectal carcinoma cell line HCT116 and ovarian carcinoma cell line A2780 were acquired from ATCC (Manassas, VA, USA). […] Fibroblasts and HCT116 cells were cultured in Dulbecco’s modified Eagle medium (DMEM, Thermo Fisher Scientific) and A2780 cell line was cultured on Roswell Park Memorial institute 1640 (RPMI-1640, Thermo Fisher Scientific). Both media were supplemented with 10% (v/v) fetal bovine serum (FBS, Thermo Fisher Scientific) and a mixture of 100 U/mL penicillin and 100 mg/mL streptomycin. The supplemented media are referred to from this point on as DMEM or RPMI for simplicity. […] All experiments underwent at 37 °C, 5% (v/v) CO2 and 99% (v/v) humidity in the dark.
(§4) Cells were seeded in a 96-well plate in a density of 7500 cells/well, and after 24 h was submitted to a concentration range between 0.1–50 µM of complexes JHOR10 and JHOR11. DMSO with a 0.1% (v/v) concentration was used as vector control and cisplatin was used as positive control in all replicates. After 48 h incubation, cellular viability was inferred with the Cell Titer 96® Aqueous One solution cell proliferation assay (Promega, Madison, WI, USA) according to the manufacturer’s instructions and procedures previously described [18, 40]. The absorbance of the produced Formazan was quantified with a Tecan microplate reader, Infinite M200 (Tecan, Mannedorf, Switzerland) and the analysis of the dose–response curves to determine the relative IC50 was performed with GraphPad Prism 8.2.1 software (GraphPad Software, La Jolla, CA, USA).

[2] = system: A2780 ovarian carcinoma cell line; assay: MTS antiproliferative assay, A2780; assay type: cell-based, human; settings: 48 h incubation, MTS; read-out: Relative IC50, A2780
Protocol: as §3, §4

[3] = Stability in DMSO-d6-D2O solution by 1H NMR; assay type: physicochemical; settings: DMSO-d6-D2O 3:7 (v/v), 110 mM chloride
Protocol: To evaluate the stability of complexes in a cell culture medium, powdered complexes were first solubilized in DMSO and then immediately in DMEM, in order to guarantee that no more than 0.1% (v/v) DMSO was present in the medium. […] In addition, the stability of the complexes in solution was investigated by ^1H NMR spectroscopy. The ruthenium complexes were dissolved in DMSO-d6-D2O, in a 3:7 ratio (v/v) with a 110 mM chloride concentration, and the ^1H NMR spectra was recorded immediately and after 48 h. […] This observation is in agreement with the M–Cl aquation processes described for several metallic compounds, such as cisplatin [23]. After 48 h, the ^1H NMR spectrum of JHOR10 was unchanged.
The stability of complexes was evaluated in DMEM (Dulbecco’s modified Eagle’s medium). Powdered complexes JHOR10 and JHOR11 were solubilized in DMSO and then immediately diluted in DMEM without phenol red (Thermo Fisher Scientific, Waltham, MA, USA) to a final concentration of 100 µM, assuring that the final concentration of DMSO was not higher than 0.1% (v/v). The UV-visible spectrum was measured after an incubation at 37 °C for 24 or 48 h (DMEM) in a wavelength range between 260 and 800 nm, using a quartz cuvette with 1 cm path length. A total of 2 mg of each compound was dissolved in DMSOd6-D2O 3:7 (v/v) 110 mM chloride concentration (NaCl), and the ^1H NMR were recorded at 0 h and 48 h on a Bruker Avance III 400 MHz.

[4] = system: doxorubicin-resistant HCT116 (HCT116-Dox); settings: read-out: Relative IC50, HCT116-Dox; 48 h incubation, MTS
Protocol: (§1) The cytotoxic potential of the complexes was evaluated by assessing their viability using the 3-(4,5-dimethylthiazol-2-yl)-5-(3-carboxymethoxyphenyl)-2-(4-sulfophenyl)-2H tetrazolium, inner salt (MTS) colorimetric assay in three tumor cell lines—ovarian carcinoma, A2780, colorectal carcinoma, HCT116, and colorectal carcinoma resistant to doxorubicin, HCT116-Dox and in normal human primary dermal fibroblasts (Figure 1 and Figure S7).
(§2) Normal dermal human fibroblasts, colorectal carcinoma cell line HCT116 and ovarian carcinoma cell line A2780 were acquired from ATCC (Manassas, VA, USA). HCT116 cell lines resistant to doxorubicin (HCT116-Dox) were derived from the HCT116 cell line, as previously described. Fibroblasts and HCT116 cells were cultured in Dulbecco’s modified Eagle medium (DMEM, Thermo Fisher Scientific) and A2780 cell line was cultured on Roswell Park Memorial institute 1640 (RPMI-1640, Thermo Fisher Scientific). Both media were supplemented with 10% (v/v) fetal bovine serum (FBS, Thermo Fisher Scientific) and a mixture of 100 U/mL penicillin and […] streptomycin. The supplemented media are referred to from this point on as DMEM or RPMI for simplicity.

[5] = system: normal human dermal fibroblasts; settings: read-out: Relative IC50, Fibroblasts; 48 h incubation, MTS
Protocol: as §1, §2

zebrafish embryos = assay: In vivo toxicity assessment using zebrafish embryos; settings: zebrafish embryos exposed from 72 hpf, 96 h
Protocol: The toxicity of the JHOR10 and JHOR11 compounds was assayed in zebrafish embryos. There was a NOEC (No Observed Effect Concentration) in the case of JHOR11 of 80 µM (Table 2). The NOEC is the concentration used for the xenotransplantation experiments in order not to affect the normal development of the embryos and being able, in parallel, to assay the effect of the compound over the injected cells. Apart from that, the mortality assayed in the toxicity assays supports the concentration obtained in the NOEC, with a low mortality of the embryos when they are incubated with JHOR11 (Figure 13 and Figure 14).
Wild-type zebrafish were housed in 30 L tanks within a water recirculation system under controlled physicochemical conditions: pH 7–7.5, temperature 26 ± 2 °C, conductivity 600 µS/cm and light/dark photoperiod of 14/10 h. The adult fish were fed Gemma Micro 300 (Skretting) twice a day. Fertilized eggs were collected after natural spawning and stored in Petri dishes for 48 h until being injected, or 72 h until being exposed to different concentrations of ruthenium compounds.
At 72 h post-fertilization (hpf), the embryos were exposed to increasing concentrations of two ruthenium compounds to determine toxicological estimates: LC50 with no observed effect concentration (NOEC) and lowest observed effect concentration (LOEC). The acute toxicity assessment of the compounds was performed following the standards of the OECD Test Guideline Program.
The embryos were individually transferred to 96-well plates containing 100 µL of each desired concentration. The plates were then placed in an incubator with a temperature of 26 °C and a photoperiod of 14 h of light and 10 h of darkness. The duration of the experiment was 96 h, and observations were made every 24 h recording the four lethal effects indicated by the OECD: embryo coagulation, absence of somite formation, absence of separation of the yolk tail and absence of heartbeat. All compounds were dissolved with dimethylsulfoxide (DMSO) with a final concentration of 1%. In each test, seven concentrations were analyzed for each compound, these being: JHOR10 (10, 20, 30, 40, 50, 55, 60 µM) and JHOR11 (50, 80, 100, 140, 200, 300, 400 µM).
For the evaluation of toxicity, the mortality data were analyzed by probit analysis with the ToxRat software (ToxRat Solutions. 2003. ToxRat®. Software for the statistical analysis of biotests. Alsdorf, Germany).

A2780 cells = assay: Cell cycle analysis (PI staining); assay type: cell-based, human; settings: A2780 synchronized with thymidine; IC50 of JHOR11 or 0.1 µM doxorubicin; 5-32 h, relative to DMSO
Protocol: To understand if the complex also presents a cytostatic effect, the cell cycle of A2780 cells was analyzed by DNA staining with PI, after double synchronization with thymidine at the S phase.
The cell cycle analysis was performed by DNA staining with PI according to procedures previously described with few modifications. A2780 cells were seeded in 6-well plates in a cell density of 4 × 10^5 cells/well and the cell cycle was synchronized in the S-phase by double blocking with 2 mM thymidine. […] After 5 h, 9 h, 24 h or 32 h, cells were detached, fixed with 80% (v/v) ethanol, incubated with 50 mg/mL RNase A (NZYtech, Lisbon, Portugal) and stained with […] PI (Thermo Fisher Scientific). The fluorescence of each sample was analyzed in an Attune acoustic focusing cytometer and respective software (Thermo Fisher Scientific).

SMILES	IC50 [1]	IC50 [2]	stability in solution by 1H NMR after 48 h ([3]; 48 h)	stability in solution by 1H NMR at t = 0 h ([3]; t = 0 h)	IC50 [4]	IC50 [5]	LC50 (zebrafish embryos)	LOEC (Lowest Observed Effect Concentration) (zebrafish embryos)	NOEC (No Observed Effect Concentration) (zebrafish embryos)	cell cycle effect (A2780 cells)
N.N.[Cl][Pt][Cl] [Cisplatin, reference compound]	15.6 ± 5.3 µM	1.9 ± 0.2 µM								
Cc1ccc(C(C)C)cc1.O=C1C(=O)c2cccnc2-c2ncccc21.O=S(=O)([O-])C(F)(F)F.[Cl][Ru+] [JHOR10, [Ru{p-C6H4(Me)(iPr)}{(Dione)Cl][CF3SO3]]	25.7 ± 1.3 µM	5.3 ± 0.3 µM	unchanged	new sets of resonances appeared	> 50 µM	> 50 µM	29.8 µM	20.00 µM	10.00 µM	
COc1cccc2c1C(=O)c1c(O)c3c(c(O)c1C2=O)C[C@@](O)(C(=O)CO)C[C@@H]3O[C@H]1C[C@H](N)[C@H](O)[C@H](C)O1 [doxorubicin, reference compound]										cell cycle arrest at G2/M phase
